# Marks after values point to notes of the source that are not given here.
# Tests used:
# [1] = molecular target: T1, hMC3R (Homo sapiens, UniProt P41968); experiment: cAMP functional assay (agonist); format: cell-based
# T1 construct: expressed in transfected cells; host or cells: CHO-, L- or other eukaryotic cells
# Method: (§1) Cells (for example, CHO— or L-cells or other eukaryotic cells) expressing a human melanocortin receptor (see e.g. Yang-YK; Ollmann-MM; Wilson-BD; Dickinson-C; Yamada-T; Barsh-GS; Gantz-I; Mol-Endocrinol. 1997 March; 11(3): 274-80) were dissociated from tissue culture flasks by rinsing with Ca and Mg free phosphate buffered saline (14190-136, Life Technologies, Gaithersburg, Md.) and detached following 5 min incubation at 37° C. with enzyme free dissociation buffer (S-014-B, Specialty Media, Lavellette, N.J.). Cells were collected by centrifugation and resuspended in Earle's Balanced Salt Solution (14015-069, Life Technologies, Gaithersburg, Md.) with additions of 10 mM HEPES pH 7.5, 5 mM MgCl2, 1 mM glutamine and 1 mg/ml bovine serum albumin. Cells were counted and diluted to 1 to 5×10^6/mL. The phosphodiesterase inhibitor 3-isobutyl-1-methylxanthine was added to cells to 0.6 mM.
# (§2) Agonist Assay: Test compounds were diluted in dimethylsulfoxide (DMSO) (10^−5 to 10^−10 M) and 0.1 volume of compound solution was added to 0.9 volumes of cell suspension; the final DMSO concentration was […]. After room temperature incubation for 45 min, cells were lysed by incubation at 100° C. for 5 min to release accumulated cAMP.
# (§3) cAMP was measured in an aliquot of the cell lysate with the Amersham (Arlington Heights, Ill.)
# [2] = molecular target: T2, hMC5R (Homo sapiens, UniProt P33032); experiment: cAMP functional assay (agonist); format: cell-based
# T2 construct: expressed in transfected cells; host or cells: CHO-, L- or other eukaryotic cells
# T2 sequence (P33032 whole entry): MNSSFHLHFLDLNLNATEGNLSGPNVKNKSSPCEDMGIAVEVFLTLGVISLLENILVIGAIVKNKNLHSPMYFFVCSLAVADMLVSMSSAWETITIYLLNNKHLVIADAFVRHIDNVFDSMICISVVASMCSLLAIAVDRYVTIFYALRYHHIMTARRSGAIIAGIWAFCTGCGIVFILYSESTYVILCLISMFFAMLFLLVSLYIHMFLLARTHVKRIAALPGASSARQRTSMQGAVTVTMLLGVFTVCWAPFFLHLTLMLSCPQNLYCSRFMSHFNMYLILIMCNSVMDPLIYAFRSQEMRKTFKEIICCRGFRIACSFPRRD
# Method: as §1, §2, §3
# [3] = molecular target: T1, hMC3R; experiment: Melanocortin receptor membrane binding assay (125I-NDP-alpha-MSH)
# Method: The cells were grown at 37° C. with CO2 and humidity control until the desired cell density and cell number was obtained.
# [4] = molecular target: T3, hMC1bR (Homo sapiens, UniProt Q01726); experiment: as above
# T3 sequence (Q01726 whole entry): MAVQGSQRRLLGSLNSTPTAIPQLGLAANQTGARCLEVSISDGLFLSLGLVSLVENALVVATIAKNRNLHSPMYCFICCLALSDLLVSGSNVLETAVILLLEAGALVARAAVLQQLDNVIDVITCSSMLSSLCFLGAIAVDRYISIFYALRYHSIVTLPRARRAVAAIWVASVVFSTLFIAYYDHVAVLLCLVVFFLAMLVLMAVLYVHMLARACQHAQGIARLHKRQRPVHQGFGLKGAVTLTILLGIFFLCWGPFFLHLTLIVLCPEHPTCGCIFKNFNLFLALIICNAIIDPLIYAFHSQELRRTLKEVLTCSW
# Method: (§4) The membrane binding assay was used to identify competitive inhibitors of ^125I-NDP-alpha-MSH binding to cloned human MCRs expressed in mouse L- or Chinese hamster ovary (CHO)-cells.
# (§5) Cell lines expressing melanocortin receptors were grown in T-180 flasks containing selective medium of the composition: 1 L Dulbecco's modified Eagles Medium (DMEM) with 4.5 g […], 25 mM Hepes, without sodium pyruvate, (Gibco/BR1); 100 ml 10% heat-inactivated fetal bovine serum (Sigma); 10 mL 10,000 unit/mL penicillin & 10,000 μg/mL streptomycin (Gibco/BR1); 10 ml 200 mM L-glutamine (Gibco/BR1); 1 mg/mL geneticin (G418) (Gibco/BR1). The cells were grown at 37° C. with CO2 and humidity control until the desired cell density and cell number was obtained.
# (§6) The medium was poured off and 10 mls/T-180 flask of enzyme-free dissociation media (Specialty Media Inc.) was added. The cells were incubated at 37° C. for 10 min or until cells sloughed off when flask was banged against hand.
# (§7) The cells were harvested into 200 mL centrifuge tubes and spun at 1000 rpm, 4° C., for 10 min. The supernatant was discarded and the cells were resuspended in 5 mls/monolayer membrane preparation buffer having the composition: 10 mM Tris pH 7.2-7.4; 4 μg/mL Leupeptin (Sigma); 10 μM Phosphoramidon (Boehringer Mannheim); 40 μg/mL Bacitracin (Sigma); 5 μg/mL Aprotinin (Sigma); 10 mM Pefabloc (Boehringer Mannheim). The cells were homogenized with motor-driven dounce (Talboy setting 40), using 10 strokes and the homogenate centrifuged at 6,000 rpm, 4° C., for 15 min.
# (§8) The pellets were resuspended in 0.2 mls/monolayer membrane prep buffer and aliquots were placed in tubes ([…]) and quick frozen in liquid nitrogen and then stored at −80° C.
# (§9) Test compounds or unlabelled NDP-α-MSH was added to 100 μL of membrane binding buffer to a final concentration of 1 μM. The membrane binding buffer had the composition: 50 mM Tris pH 7.2; 2 mM CaCl2; 1 mM MgCl2; 5 mM KCl; 0.2% BSA; 4 μg/mL Leupeptin (SIGMA); 10 μM Phosphoramidon (Boehringer Mannheim); 40 μg/mL Bacitracin (SIGMA); 5 μg/mL Aprotinin (SIGMA); and 10 mM Pefabloc (Boehringer Mannheim). One hundred μL of membrane binding buffer containing 10-40 μg membrane protein was added, followed by […]. The resulting mixture was vortexed briefly and incubated for 90-120 min at room temp while shaking.
# (§10) The mixture was filtered with Packard Microplate 196 filter apparatus using Packard Unifilter 96-well GF/C filter with 0.1% polyethyleneimine (Sigma). The filter was washed (5 times with a total of 10 mL per well) with room temperature of filter wash having the composition: 50 mM Tris-HCl pH 7.2 and 20 mM NaCl. […] The top was sealed and the radioactivity quantitated in a Packard Topcount Microplate Scintillation counter.
# [5] = molecular target: T2, hMC5R; experiment: as above
# Method: as §4, §5, §6, §7, §8, §9, §10
# [6] = molecular target: T4, hMC4R (Homo sapiens, UniProt P32245); experiment: as above
# T4 construct: expressed in transfected cells; host or cells: CHO-, L- or other eukaryotic cells
# T4 sequence (P32245 whole entry): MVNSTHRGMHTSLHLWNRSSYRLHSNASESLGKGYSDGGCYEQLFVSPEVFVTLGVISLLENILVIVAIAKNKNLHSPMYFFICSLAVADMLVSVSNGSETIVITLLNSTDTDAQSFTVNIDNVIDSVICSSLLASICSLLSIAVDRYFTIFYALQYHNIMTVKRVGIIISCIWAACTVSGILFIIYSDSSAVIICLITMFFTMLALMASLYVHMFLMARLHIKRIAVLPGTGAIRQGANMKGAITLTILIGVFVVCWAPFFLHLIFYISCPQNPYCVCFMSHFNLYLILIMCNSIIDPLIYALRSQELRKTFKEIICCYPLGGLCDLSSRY
# Method: as §4, §5, §6, §7, §8, §9, §10
# [7] = system: ferrets; experiment: MC4R associated emesis in ferrets, Compound A and Compound B (Table 1); format: in vivo, ferret; conditions: Compound A 60 mg/kg orally; for % Emesis: ferrets; for # of Ferrets: ferrets with emesis/dosed
# Method: (§11) Food intake (FI) was monitored at 1, 2, 4, and 24, hours after dosing. Body weight (BWT) was measured at the time of dosing and at 24 hours. Any incidence of emesis or abnormal behavior by subjects was recorded. Two studies were combined to generate the data.
# [8] = molecular target: T3, hMC1bR; experiment: cAMP functional assay (agonist); format: cell-based
# Method: as §1, §2, §3
# (§12) cAMP detection assay (RPA556). The amount of cAMP production which resulted from an unknown compound was compared to that amount of cAMP produced in response to alpha-MSH which was defined as a 100% agonist. The EC50 is defined as the compound concentration which results in half maximal stimulation, when compared to its own maximal level of stimulation.
# [9] = molecular target: T4, hMC4R; experiment: cAMP functional assay (agonist); format: cell-based
# Method: as §1, §2, §3, §12
# [10] = molecular target: T5, hMC2R (Homo sapiens, UniProt Q01718); experiment: cAMP functional assay (agonist); format: cell-based
# T5 construct: expressed in transfected cells; host or cells: CHO-, L- or other eukaryotic cells
# T5 sequence (Q01718 whole entry): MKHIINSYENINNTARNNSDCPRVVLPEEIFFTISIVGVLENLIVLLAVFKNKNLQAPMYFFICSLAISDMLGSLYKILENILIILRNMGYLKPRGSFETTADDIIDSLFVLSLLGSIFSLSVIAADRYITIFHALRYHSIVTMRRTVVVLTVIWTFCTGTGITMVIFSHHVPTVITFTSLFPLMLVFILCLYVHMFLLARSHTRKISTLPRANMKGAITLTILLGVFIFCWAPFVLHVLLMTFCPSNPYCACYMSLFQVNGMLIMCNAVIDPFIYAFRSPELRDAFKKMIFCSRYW
# T5 sequence (Q8TCY5 whole entry partner): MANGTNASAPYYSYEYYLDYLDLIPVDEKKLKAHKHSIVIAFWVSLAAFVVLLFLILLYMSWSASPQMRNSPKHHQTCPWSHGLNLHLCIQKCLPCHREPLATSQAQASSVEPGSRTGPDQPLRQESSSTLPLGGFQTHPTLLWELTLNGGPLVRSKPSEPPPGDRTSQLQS
# Method: as §1, §2, §3, §12
# [11] = system: ferrets; experiment: MC4R associated emesis in ferrets, Compound A and Compound F (Table 2); format: in vivo, ferret; conditions: Compound A (10 mg/kg); for % Emesis: ferrets; for # of Ferrets: ferrets with emesis/dosed
# Method: FIG. 3. […] All food intake data were analyzed by two-tailed T-TEST.
# as §11
# T1 sequence (P41968 whole entry): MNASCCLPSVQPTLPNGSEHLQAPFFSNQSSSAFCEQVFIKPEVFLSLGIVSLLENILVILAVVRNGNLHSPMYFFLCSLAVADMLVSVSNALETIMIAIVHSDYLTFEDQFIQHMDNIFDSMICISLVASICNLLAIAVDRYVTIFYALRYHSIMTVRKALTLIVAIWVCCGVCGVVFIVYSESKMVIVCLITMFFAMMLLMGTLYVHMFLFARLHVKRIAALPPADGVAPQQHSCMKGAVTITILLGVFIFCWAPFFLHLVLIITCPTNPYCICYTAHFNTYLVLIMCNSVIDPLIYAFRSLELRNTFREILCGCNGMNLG
smiles,measurement,setting,value
CC[C@H](NC(C)=O)c1cc(Cl)ccc1C1CCN(C(=O)[C@@H]2CN(C(C)(C)C)C[C@H]2c2ccc(F)cc2F)CC1 [Compound A],EC50,[1],920 nM
same,EC50,[2],1400 nM
same,IC50,[3],7200 nM
same,IC50,[4],5600 nM
same,Selectivity Binding IC50 1R/4R,[4]; IC50 hMC1bR / IC50 hMC4R,127.27
same,IC50,[5],1600 nM
same,IC50,[6],44 nM
same,% Emesis,[7]; 1 hour,31%
same,% Emesis,[7]; 2 hours,8%
same,% Emesis,[7]; 4 hours,69%
same,% Emesis,"[7]; Total, 60 mg/kg",77%
same,# of Ferrets,[7]; 1 hour,4/13
same,# of Ferrets,[7]; 2 hours,1/13
same,# of Ferrets,[7]; 4 hours,9/13******
same,# of Ferrets,[7]; Total,10/13****
same,EC50,[8],1700 nM
same,Selectivity cAMP EC50 1R/4R,[8]; EC50 hMC1bR / EC50 hMC4R,121.43
same,EC50,[9],14 nM
same,EC50,[10],> 10000 nM
same,% Emesis,[11]; 1 hour,40%
same,% Emesis,[11]; 2 hours,40%
same,% Emesis,[11]; 4 hours,60%
same,% Emesis,[11]; total,100%
same,# of Ferrets,[11]; 1 hour,2/5**
same,# of Ferrets,[11]; 2 hours,2/5
same,# of Ferrets,[11]; 4 hours,5/5***
same,# of Ferrets,[11]; total,5/5*****

# From patent publication US20080200376A1, “Compositions and Methods For the Treatment Of Obesity and Sexual Dysfunction” (priority 2004, published 2008)
